Source: patent publication US11666596B2, “Nucleotide, polypeptide and applications thereof” (THE FIRST AFFILIATED HOSPITAL, SUN YAT-SEN UNIVERSITY, priority 2017, dated 2023)
Ends that are not written are not given here.

Tested on: U251 cells
Assay: Verification of ability of micropeptide to enter cells (fluorescence microscopy)
Type: cell-based
Conditions: FITC-attached micropeptide, 10 μM, 4 hours; all cells in sight were fluorescent; FIG. 4
Experimental: U251 cells were inoculated onto a glass slide at the density of 50%, and different concentrations of PTEN-31aa micropeptide attached with FITC fluorescent groups (the micropeptide was dissolved in DMSO with a concentration being 20 μg/μL, 5 mM) were added to treat cells for 4 hours, then fixed with Faure Marin, and observed and photographed under a fluorescence microscope.

MWRDSLCAAAGYALGAGTRLRSVLSSRKLQP [PTEN-31aa]
ability of micropeptide to enter U251 cells: could enter the U251 cells smoothly
